The series has as its system rodent lifetime carcinogenesis bioassay, tumor incidence TD50. The series is described as follows: chronic cancer bioassays in animals – CPDB, compiled studies (AID 1745844).
[1] abbreviates: mouse, strain B6C3F1, females, by gavage, site: any site (literature study), lesion: several types, types named in the paper, dosed 103 weeks, study length 104 weeks.
Setting [2] is: mouse, strain B6C3F1, males, by gavage, site: liver, lesion: hepatocellular adenoma + hepatocellular carcinoma + neoplastic nodule, dosed 103 weeks, study length 104 weeks.
[3] abbreviates: rat, strain Fischer 344, females, by gavage, site: any site (literature study), lesion: several types, types named in the paper, dosed 103 weeks, study length 104 weeks.
[4] abbreviates: rat, strain Fischer 344, males, by gavage, site: any site (literature study), lesion: several types, types named in the paper, dosed 103 weeks, study length 104 weeks.

Active and inactive are the calls of the source. How the calls were made is not given here.

In general, TD50 refers to the 50% point of the dose-response relation for the toxic effect studied. As to `CC[C@H](C)C(=O)O[C@H]1C[C@@H](C)C=C2C=C[C@H](C)[C@H](CC[C@@H]3C[C@@H](O)CC(=O)O3)[C@H]21`, the TD50 runs as follows: (mouse, strain Charles River CD1, females, by gavage, site: forestomach, lesion: squamous-cell carcinoma, dosed 92 weeks, study length 92 weeks) 38400 mg/kg/day; (mouse, strain Charles River CD1, females, by gavage, site: forestomach, lesion: squamous-cell papilloma, dosed 92 weeks, study length 92 weeks) 1020 mg/kg/day; (mouse, strain Charles River CD1, females, by gavage, site: liver, lesion: hepatocellular carcinoma, dosed 92 weeks, study length 92 weeks) 2240 mg/kg/day; (mouse, strain Charles River CD1, females, by gavage, site: liver, lesion: several types, types named in the paper, dosed 92 weeks, study length 92 weeks) 623 mg/kg/day; (mouse, strain Charles River CD1, females, by gavage, site: lung, lesion: adenocarcinoma, dosed 92 weeks, study length 92 weeks) 57400 mg/kg/day; (mouse, strain Charles River CD1, females, by gavage, site: lung, lesion: alveolar-cell adenoma, dosed 92 weeks, study length 92 weeks) 1220 mg/kg/day. The TD50 runs as follows: (mouse, strain Charles River CD1, males, by gavage, site: forestomach, lesion: squamous-cell papilloma, dosed 92 weeks, study length 92 weeks) 8550 mg/kg/day; (mouse, strain Charles River CD1, males, by gavage, site: liver, lesion: hepatocellular carcinoma, dosed 92 weeks, study length 92 weeks) 708 mg/kg/day; (mouse, strain Charles River CD1, males, by gavage, site: liver, lesion: several types, types named in the paper, dosed 92 weeks, study length 92 weeks) 439 mg/kg/day; (rat, strain Charles River CD (Sprague-Dawley), females, by gavage, site: liver, lesion: hepatocellular adenoma, dosed 105 weeks, study length 105 weeks) 19900 mg/kg/day (inactive); (rat, strain Charles River CD (Sprague-Dawley), males, by gavage, site: liver, lesion: hepatocellular carcinoma, dosed 105 weeks, study length 105 weeks) 2330 mg/kg/day (inactive). In addition, the carcinogen call (rat, strain Charles River CD (Sprague-Dawley), males, by gavage, site: liver, lesion: hepatocellular adenoma, dosed 105 weeks, study length 105 weeks) is “negative (inactive)”.

With `ClC1=C(Cl)[C@]2(Cl)[C@H]3[C@H]([C@@H]4C=C[C@H]3C4)[C@@]1(Cl)C2(Cl)Cl`, the carcinogen call (mouse, strain B6C3F1, females, in feed, site: any site (literature study), lesion: several types, types named in the paper, dosed 80 weeks, study length 90 weeks) is “negative (inactive)”; the carcinogen call (rat, strain Not specified, females, in feed, site: any site (literature study), lesion: one or several types, types not named, dosed 104 weeks, study length 104 weeks) is “negative (inactive)”; the carcinogen call (rat, strain Not specified, males, in feed, site: any site (literature study), lesion: one or several types, types not named, dosed 104 weeks, study length 104 weeks) was “negative (inactive)”; the carcinogen call (rat, strain Osborne-Mendel, both sexes, in feed, site: any site (literature study), lesion: several types, types named in the paper, dosed 104 weeks, study length 104 weeks) was “positive”; the carcinogen call (rat, strain Osborne-Mendel, females, in feed, site: any site (literature study), lesion: several types, types named in the paper, dosed 80 weeks, study length 111 weeks) is “negative (inactive)”; the carcinogen call (rat, strain Osborne-Mendel, females, in feed, site: any site (literature study), lesion: several types, types named in the paper, dosed 108 weeks, study length 108 weeks) is “negative (inactive)”. The carcinogen call by setting is: (rat, strain Osborne-Mendel, females, in feed, site: any site (literature study), lesion: several types, types named in the paper, dosed 111 weeks, study length 117 weeks) “negative (inactive)”; (rat, strain Osborne-Mendel, females, in feed, site: liver, lesion: one or several types, types not named, dosed 104 weeks, study length 104 weeks) “negative (inactive)”; (rat, strain Osborne-Mendel, females, in feed, site: liver, lesion: one or several types, types not named, dosed 108 weeks, study length 108 weeks) “negative (inactive)”; (rat, strain Osborne-Mendel, females, in feed, site: liver, lesion: one or several types, types not named, dosed 111 weeks, study length 117 weeks) “negative (inactive)”; (rat, strain Osborne-Mendel, males, in feed, site: any site (literature study), lesion: several types, types named in the paper, dosed 124 weeks, study length 134 weeks) “negative (inactive)”; (rat, strain Osborne-Mendel, males, in feed, site: liver, lesion: hemangioma, dosed 124 weeks, study length 134 weeks) “negative (inactive)”. In addition, the carcinogen call by setting is: (rat, strain Osborne-Mendel, males, in feed, site: liver, lesion: one or several types, types not named, dosed 108 weeks, study length 108 weeks) “negative (inactive)”; (rat, strain Sprague-Dawley, females, in feed, site: liver, lesion: one or several types, types not named, dosed 104 weeks, study length 104 weeks) “negative (inactive)”. Further, the TD50 is 9.02 mg/kg/day (mouse, strain B6C3F1, females, in feed, site: lung, lesion: alveolar/bronchiolar adenoma + alveolar/bronchiolar carcinoma, dosed 80 weeks, study length 90 weeks); 1.01 mg/kg/day (mouse, strain B6C3F1, males, in feed, site: any site (literature study), lesion: several types, types named in the paper, dosed 80 weeks, study length 90 weeks); 0.741 mg/kg/day (mouse, strain B6C3F1, males, in feed, site: liver, lesion: hepatocellular adenoma + hepatocellular carcinoma + neoplastic nodule, dosed 80 weeks, study length 90 weeks); 0.861 mg/kg/day (mouse, strain B6C3F1, males, in feed, site: liver, lesion: hepatocellular carcinoma, dosed 80 weeks, study length 89 weeks); 0.741 mg/kg/day (mouse, strain B6C3F1, males, in feed, site: liver, lesion: hepatocellular carcinoma, dosed 80 weeks, study length 90 weeks); 3.2 mg/kg/day (mouse, strain B6C3F1, males, in feed, site: lung, lesion: alveolar/bronchiolar adenoma + alveolar/bronchiolar carcinoma, dosed 80 weeks, study length 90 weeks). In addition, the TD50 is 4.25 mg/kg/day (mouse, strain C3HeB/Fe, both sexes, in feed, site: any site (literature study), lesion: benign tumor, dosed 104 weeks, study length 104 weeks); 4.41 mg/kg/day (mouse, strain C3HeB/Fe, both sexes, in feed, site: liver, lesion: hepatocellular adenoma, dosed 104 weeks, study length 104 weeks); 3.45 mg/kg/day (mouse, strain C3HeB/Fe, both sexes, in feed, site: liver, lesion: hepatoma, dosed 104 weeks, study length 104 weeks); 129 mg/kg/day (mouse, strain C3HeB/Fe, both sexes, in feed, site: lung, lesion: carcinoma, dosed 104 weeks, study length 104 weeks); 42.3 mg/kg/day (rat, strain Osborne-Mendel, both sexes, in feed, site: lung, lesion: lymphosarcoma, dosed 104 weeks, study length 104 weeks); 3.12 mg/kg/day (inactive) (rat, strain Osborne-Mendel, females, in feed, site: adrenal gland, lesion: cortical adenoma, dosed 80 weeks, study length 109 weeks). Moreover, the TD50 (rat, strain Osborne-Mendel, females, in feed, site: any site (literature study), lesion: one or several types, types not named, dosed 104 weeks, study length 104 weeks) came out at 1.69 mg/kg/day; the TD50 (rat, strain Osborne-Mendel, females, in feed, site: liver, lesion: hepatocellular adenoma + hepatocellular carcinoma + neoplastic nodule, dosed 80 weeks, study length 111 weeks) was determined as 466 mg/kg/day; the TD50 (rat, strain Osborne-Mendel, females, in feed, site: lymphoreticular system, lesion: one or several types, types not named, dosed 104 weeks, study length 104 weeks) is 4.35 mg/kg/day (inactive); the TD50 (rat, strain Osborne-Mendel, males, in feed, site: any site (literature study), lesion: several types, types named in the paper, dosed 74 weeks, study length 111 weeks) was 16.4 mg/kg/day (inactive); the TD50 (rat, strain Osborne-Mendel, males, in feed, site: any site (literature study), lesion: several types, types named in the paper, dosed 108 weeks, study length 108 weeks) is 4.21 mg/kg/day (inactive).

For the molecule `CN(C)CCC(c1ccc(Cl)cc1)c1ccccn1` (configuration not stated), the carcinogen call under setting [1] was “negative (inactive)”; the carcinogen call under setting [3] is “negative (inactive)”; the carcinogen call (rat, strain Fischer 344, females, in feed, site: liver, lesion: neoplastic nodule, dosed 106 weeks, study length 128 weeks) was “negative (inactive)”; the carcinogen call under setting [4] was “negative (inactive)”; the carcinogen call (rat, strain Fischer 344, males, in feed, site: liver, lesion: neoplastic nodule, dosed 106 weeks, study length 128 weeks) was “negative (inactive)”. In addition, the TD50 is 84 mg/kg/day (inactive) (mouse, strain B6C3F1, males, by gavage, site: adrenal capsule, lesion: adenoma, NOS, dosed 103 weeks, study length 104 weeks); 54.1 mg/kg/day (mouse, strain B6C3F1, males, by gavage, site: any site (literature study), lesion: several types, types named in the paper, dosed 103 weeks, study length 104 weeks); 101 mg/kg/day under setting [2]; 94.7 mg/kg/day (mouse, strain B6C3F1, males, by gavage, site: subcutaneous tissue, lesion: fibrosarcoma + fibroma + neurofibrosarcoma + sarcoma, NOS, dosed 103 weeks, study length 104 weeks); 95.2 mg/kg/day (mouse, strain B6C3F1, males, by gavage, site: subcutaneous tissue, lesion: fibrosarcoma + neurofibrosarcoma + sarcoma, NOS, dosed 103 weeks, study length 104 weeks); 140 mg/kg/day (mouse, strain B6C3F1, males, by gavage, site: subcutaneous tissue, lesion: fibrosarcoma, dosed 103 weeks, study length 104 weeks). Moreover, the TD50 runs as follows: (rat, strain Fischer 344, females, by gavage, site: liver, lesion: hepatocellular adenoma + hepatocellular carcinoma + neoplastic nodule, dosed 103 weeks, study length 104 weeks) 3180 mg/kg/day; (rat, strain Fischer 344, males, by gavage, site: liver, lesion: hepatocellular adenoma + hepatocellular carcinoma + neoplastic nodule, dosed 103 weeks, study length 104 weeks) 208 mg/kg/day.

As for `Oc1cccc(O)c1`, the TD50 is, setting by setting: (mouse, strain B6C3F1, females, by gavage, site: any site (literature study), lesion: several types, types named in the paper, dosed 104 weeks, study length 104 weeks) 1880 mg/kg/day (inactive); (mouse, strain B6C3F1, females, by gavage, site: liver, lesion: hepatocellular adenoma + hepatocellular carcinoma + neoplastic nodule, dosed 104 weeks, study length 104 weeks) 1560 mg/kg/day; (mouse, strain B6C3F1, females, by gavage, site: lung, lesion: alveolar/bronchiolar adenoma + alveolar/bronchiolar carcinoma, dosed 104 weeks, study length 104 weeks) 1350 mg/kg/day; (mouse, strain B6C3F1, males, by gavage, site: lung, lesion: alveolar/bronchiolar adenoma + alveolar/bronchiolar carcinoma, dosed 104 weeks, study length 104 weeks) 6800 mg/kg/day; under setting [3], 219 mg/kg/day (inactive); under setting [4], 213 mg/kg/day. For the same molecule, the TD50 (rat, strain Fischer 344, males, by gavage, site: testis, lesion: interstitial-cell adenoma, dosed 103 weeks, study length 104 weeks) is 84 mg/kg/day (inactive). Besides, the carcinogen call (mouse, strain B6C3F1, males, by gavage, site: any site (literature study), lesion: several types, types named in the paper, dosed 104 weeks, study length 104 weeks) is “negative (inactive)”.

In the case of `OCc1ccccc1`, the TD50 by setting is: under setting [1], 57500 mg/kg/day (inactive); (mouse, strain B6C3F1, females, by gavage, site: liver, lesion: hepatocellular adenoma + hepatocellular carcinoma + neoplastic nodule, dosed 103 weeks, study length 104 weeks) 1040 mg/kg/day; (mouse, strain B6C3F1, males, by gavage, site: adrenal gland, lesion: cortical adenoma, dosed 103 weeks, study length 104 weeks) 1620 mg/kg/day (inactive); under setting [2], 588 mg/kg/day; (mouse, strain B6C3F1, males, by gavage, site: lung, lesion: alveolar/bronchiolar adenoma + alveolar/bronchiolar carcinoma, dosed 103 weeks, study length 104 weeks) 546 mg/kg/day; under setting [3], 885 mg/kg/day (inactive). For the same molecule, the TD50 runs as follows: (rat, strain Fischer 344, males, by gavage, site: mammary gland, lesion: adenoma, NOS + fibroadenoma, dosed 103 weeks, study length 104 weeks) 1140 mg/kg/day (inactive); (rat, strain Fischer 344, males, by gavage, site: mammary gland, lesion: fibroadenoma, dosed 103 weeks, study length 104 weeks) 1380 mg/kg/day.

Source of the values: PubChem BioAssay AID1745844 (Carcinogenic Potency Database (CPDB), 2022).
